Source: ChEMBL document CHEMBL1201862, “PubChem BioAssay data set” (2004)
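Briefly, cells in 96-well plates were exposed to five compound concentrations for 48 h, and endpoints were estimated by linear interpolation. At the GI50, growth is halved.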 Calls of active or inactive are those of the source. Cut-off read from the data, not from the text of the source: active = GI50 up to about 1.1 µM and inactive = higher.

Tests used:
Test in all cases: inhibition of tumour cell growth, NCI panel, 48 h
[1] = tested on: MDA-MB-435
[2] = tested on: BT-549
[3] = tested on: CAKI-1
[4] = tested on: HCT-15
[5] = tested on: NCI-H460
[6] = tested on: OVCAR-3
[7] = tested on: HT-29
[8] = tested on: DU-145
[9] = tested on: A549
[10] = tested on: SW-620
[11] = tested on: NCI-H226
[12] = tested on: PC-3
[13] = tested on: IGROV-1
[14] = tested on: NCI-H23
[15] = tested on: SF-295
[16] = tested on: HOP-92
[17] = tested on: SF-268
[18] = tested on: HOP-18
[19] = tested on: KM-20L2
[20] = tested on: SR
[21] = tested on: Hs-578T
[22] = tested on: NCI/ADR-RES
[23] = tested on: OVCAR-5
[24] = tested on: T47D
[25] = tested on: MDA-N
[26] = tested on: 786-0
[27] = tested on: HCC 2998
[28] = tested on: DMS-114
[29] = tested on: KM12
[30] = tested on: HCT-116
[31] = tested on: SN12C
[32] = tested on: UACC-257
[33] = tested on: HOP-62
[34] = tested on: SNB-78
[35] = tested on: DLD-1
[36] = tested on: Malme-3M
[37] = tested on: TK-10
[38] = tested on: UO-31
[39] = tested on: EKVX
[40] = tested on: COLO 205
[41] = tested on: SNB-19
[42] = tested on: M19-MEL
[43] = tested on: ACHN
[44] = tested on: SF-539
[45] = tested on: OVCAR-8
[46] = tested on: RXF 393
[47] = tested on: SK-MEL-2
[48] = tested on: A498
[49] = tested on: SK-MEL-28
[50] = tested on: NCI-H522
[51] = tested on: RPMI-8226
[52] = tested on: OVCAR-4
[53] = tested on: MOLT-4
[54] = tested on: SK-MEL-5
[55] = tested on: M14
[56] = tested on: LXFL 529
[57] = tested on: LOX IMVI
[58] = tested on: UACC-62
[59] = tested on: DMS-273
[60] = tested on: K562
[61] = tested on: U-251
[62] = tested on: SNB-75
[63] = tested on: CCRF-CEM
[64] = tested on: HL-60

In the case of `CNCCNc1ccc2c3c(nn2CCNCCO)-c2c(O)ccc(O)c2C(=O)c13`, the GI50 [1] is reported as 0.923 µM (active), the GI50 [2] is reported as 0.109 µM (active) and the GI50 [3] is reported as 0.101 µM (active). For the same compound, the GI50 [4] was 1.72 µM, the GI50 [5] was 0.0139 µM (active) and the GI50 [6] was 1.03 µM (active). The GI50 [7] was 0.378 µM (active), the GI50 [8] was 0.0713 µM (active) and the GI50 [9] was 0.0597 µM (active). The GI50 [10] was 0.273 µM (active), the GI50 [11] was 0.0227 µM (active) and the GI50 [12] was 0.535 µM (active). For the same compound, the GI50 [13] was 0.454 µM (active), the GI50 [14] was 0.111 µM (active) and the GI50 [15] was 0.0681 µM (active). For the same compound, the GI50 [16] was 0.173 µM (active), the GI50 [17] was 0.0601 µM (active) and the GI50 [18] was 0.508 µM (active). For the same compound, the GI50 [19] was 0.55 µM (active), the GI50 [20] was 0.0519 µM (active) and the GI50 [21] was 0.166 µM (active). The GI50 [22] was 20.8 µM (inactive), the GI50 [23] was 0.468 µM (active) and the GI50 [24] was 0.635 µM (active). The GI50 [25] was 0.966 µM (active), the GI50 [26] was 0.08 µM (active) and the GI50 [27] was 0.2 µM (active). The GI50 [28] was 0.0575 µM (active), the GI50 [29] was 0.211 µM (active) and the GI50 [30] was 0.346 µM (active). For the same compound, the GI50 [31] was 0.0397 µM (active), the GI50 [32] was 1.81 µM (inactive) and the GI50 [33] was 0.0179 µM (active). For the same compound, the GI50 [34] was 0.526 µM (active) and the GI50 [35] was 1.26 µM (inactive).
In the case of `CCOC(=O)[C@H]1Nc2ccc(C)cc2C2c3ccccc3CC21` (stereo partly specified), the GI50 [36] is reported as > 100 µM (inactive), the GI50 [37] is reported as > 100 µM (inactive) and the GI50 [38] is reported as > 100 µM (inactive). For the same compound, the GI50 [3] was > 100 µM (inactive), the GI50 [39] was > 100 µM (inactive) and the GI50 [4] was > 100 µM. For the same compound, the GI50 [5] was > 100 µM (inactive), the GI50 [40] was > 100 µM (inactive) and the GI50 [6] was > 100 µM (inactive). For the same compound, the GI50 [7] was > 100 µM (inactive), the GI50 [41] was > 100 µM (inactive) and the GI50 [42] was > 100 µM (inactive). For the same compound, the GI50 [9] was > 100 µM (inactive), the GI50 [43] was > 100 µM (inactive) and the GI50 [44] was > 100 µM (inactive). The GI50 [45] was > 100 µM (inactive), the GI50 [46] was 31.6 µM (inactive) and the GI50 [10] was > 100 µM (inactive). For the same compound, the GI50 [11] was > 100 µM (inactive), the GI50 [47] was > 100 µM (inactive) and the GI50 [13] was > 100 µM (inactive). For the same compound, the GI50 [48] was 33.4 µM (inactive), the GI50 [49] was > 100 µM (inactive) and the GI50 [50] was > 100 µM (inactive). The GI50 [14] was > 100 µM (inactive), the GI50 [15] was 74.1 µM (inactive) and the GI50 [51] was > 100 µM (inactive). For the same compound, the GI50 [52] was > 100 µM (inactive), the GI50 [53] was > 100 µM (inactive) and the GI50 [54] was > 100 µM (inactive). For the same compound, the GI50 [17] was > 100 µM (inactive), the GI50 [18] was > 100 µM (inactive) and the GI50 [19] was > 100 µM (inactive). The GI50 [20] was > 100 µM (inactive), the GI50 [55] was > 100 µM (inactive) and the GI50 [56] was > 100 µM (inactive). The GI50 [23] was > 100 µM (inactive), the GI50 [57] was > 100 µM (inactive) and the GI50 [58] was > 100 µM (inactive). The GI50 [59] was > 100 µM (inactive), the GI50 [60] was > 100 µM (inactive) and the GI50 [26] was > 100 µM (inactive). The GI50 [27] was > 100 µM (inactive), the GI50 [61] was > 100 µM (inactive) and the GI50 [28] was > 100 µM (inactive). For the same compound, the GI50 [29] was > 100 µM (inactive), the GI50 [30] was > 100 µM (inactive) and the GI50 [62] was 46.1 µM (inactive). The GI50 [31] was > 100 µM (inactive), the GI50 [32] was 30.6 µM (inactive) and the GI50 [33] was > 100 µM (inactive). The GI50 [34] was > 100 µM (inactive) and the GI50 [35] was > 100 µM (inactive).
With `O=C1CCC(c2ccc(Cl)cc2)=NN1c1nsc2ccccc12` the GI50 [37] was 46.3 µM (inactive), the GI50 [38] was 18 µM (inactive) and the GI50 [39] was 23.3 µM (inactive). The GI50 [4] was > 10 µM, the GI50 [5] was 29.6 µM (inactive) and the GI50 [40] was 36.5 µM (inactive). The GI50 [6] was 17.7 µM (inactive), the GI50 [7] was 30.1 µM (inactive) and the GI50 [41] was 34.4 µM (inactive). For the same compound, the GI50 [42] was 37.2 µM (inactive), the GI50 [9] was 37.9 µM (inactive) and the GI50 [43] was 34.1 µM (inactive). The GI50 [63] was 17.7 µM (inactive), the GI50 [44] was 48.4 µM (inactive) and the GI50 [45] was 31.8 µM (inactive). For the same compound, the GI50 [46] was 11.5 µM (inactive), the GI50 [10] was 58.1 µM (inactive) and the GI50 [47] was 19.1 µM (inactive). The GI50 [13] was 39.4 µM (inactive), the GI50 [49] was 31.6 µM (inactive) and the GI50 [14] was 26.7 µM (inactive). For the same compound, the GI50 [51] was 19.3 µM (inactive), the GI50 [16] was 21.5 µM (inactive) and the GI50 [52] was 36.1 µM (inactive). For the same compound, the GI50 [53] was 19.7 µM (inactive), the GI50 [54] was > 10 µM (inactive) and the GI50 [17] was 38.9 µM (inactive). The GI50 [18] was 18.7 µM (inactive), the GI50 [19] was 35.2 µM (inactive) and the GI50 [20] was 22.3 µM (inactive). For the same compound, the GI50 [55] was > 10 µM (inactive), the GI50 [56] was 26.8 µM (inactive) and the GI50 [23] was 51.2 µM (inactive). The GI50 [57] was > 10 µM (inactive), the GI50 [58] was 43.1 µM (inactive) and the GI50 [59] was 25.6 µM (inactive). The GI50 [60] was 22.2 µM (inactive), the GI50 [27] was 18.2 µM (inactive) and the GI50 [61] was 34.1 µM (inactive). The GI50 [28] was 27.9 µM (inactive), the GI50 [29] was 29.2 µM (inactive) and the GI50 [30] was 19.7 µM (inactive). The GI50 [62] was 5.77 µM (inactive), the GI50 [31] was 25.6 µM (inactive) and the GI50 [32] was 22.9 µM (inactive). The GI50 [33] was 39.2 µM (inactive), the GI50 [64] was 20 µM (inactive) and the GI50 [34] was 25.4 µM (inactive).
